Tests used:
human KDR = molecular target: T1, human KDR (Homo sapiens, UniProt P35968); test: VEGFR2 Kinase (KDR) HTRF Assay; type: biochemical; details: GST-tagged kinase domain of human KDR, 10 μM ATP; read-out: KDR activity (assay 4)
T1 construct: GST-tagged recombinant kinase domain of the human KDR; GST; made in house; host or cells: SF-9 insect cells
From the text: Assay 4: VEGFR2 Kinase (KDR) HTRF Assay
KDR inhibitory activity of compounds of the present invention was quantified employing the KDR HTRF assay as described in the following paragraphs.
GST-tagged recombinant kinase domain of the human KDR expressed in SF-9 cells was used as kinase. As substrate for the kinase reaction the biotinylated peptide biotin-Ahx-DFGLARDMYDKEYYSVG (C-terminus in acid form) was used which can be purchased e.g. form the company Biosynthan GmbH (Berlin-Buch, Germany). KDR was incubated for 45 min at 22° C. in the presence of different concentrations of test compounds in 5 μl assay buffer [50 mM Hepes/NaOH pH 7.0, 25 mM MgCl2, 5 mM MnCl2, 1.0 mM dithiothreitol, 0.1 mM sodium ortho-vanadate, 10 μM adenosine-tri-phosphate (ATP), 0.5 μM substrate, 0.001% (v/v) Nonidet-P40 (Sigma), 1% (v/v) dimethylsulfoxide]. The concentration of KDR was adjusted depending of the activity of the enzyme lot and was chosen appropriate to have the assay in the linear range. The reaction was stopped by the addition of 5 μL of a solution of HTRF detection reagents (0.1 μM streptavidine-XLent and 2 nM PT66-Eu-Chelate, an europium-chelate Labelled anti-phospho-tyrosine antibody from Perkin Elmer) in an aqueous EDTA-solution (125 mM EDTA, 0.2% (w/v) bovine serum albumin in 50 mM HEPES/NaOH pH 7.0).
(§1) The resulting mixture was incubated 1 h at 22° C. to allow the binding of the biotinylated phosphorylated peptide to the streptavidine-XLent and the PT66-Eu-Chelate. Subsequently the amount of phosphorylated substrate was evaluated by measurement of the resonance energy transfer from the PT66-Eu-Chelate to the streptavidine-XLent. Therefore, the fluorescence emissions at 620 nm and 665 nm after excitation at 350 nm was measured in a HTRF reader, e.g. a Rubystar (BMG Labtechnologies, Offenburg, Germany) or a ViewLux (Perkin-Elmer). The ratio of the emissions at 665 nm and at […] was taken as the measure for the amount of phosphorylated substrate. The data were normalised (enzyme reaction without inhibitor=0% inhibition, all other assay components but no enzyme=100% inhibition) and IC50 values were calculated by a 4 parameter fit using an inhouse software.

Tie2 = Tie2 (Homo sapiens, UniProt Q02763); test: Tie-2-Kinase HTRF-Assay without kinase preactivation; type: biochemical; design: fusion protein of GST and the intracellular domains of Tie-2; GST; made in house; host or cells: insect cells (Hi-5); details: GST-Tie-2 intracellular domains, 10 μM ATP, read-out: Tie2 activity (assay 2)
Tie2, sequence (Q02763 770-1124 limits assumed): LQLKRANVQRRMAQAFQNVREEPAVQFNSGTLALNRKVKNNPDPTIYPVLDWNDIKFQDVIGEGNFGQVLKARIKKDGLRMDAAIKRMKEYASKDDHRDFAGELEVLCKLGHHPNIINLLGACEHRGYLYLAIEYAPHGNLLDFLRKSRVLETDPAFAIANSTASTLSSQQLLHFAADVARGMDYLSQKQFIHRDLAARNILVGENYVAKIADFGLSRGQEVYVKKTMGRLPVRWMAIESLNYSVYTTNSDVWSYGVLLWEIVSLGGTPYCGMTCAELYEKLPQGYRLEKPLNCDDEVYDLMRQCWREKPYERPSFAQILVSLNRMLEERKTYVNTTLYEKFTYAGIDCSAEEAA
From the text: Tie2-inhibitory activity of compounds of the present invention was quantified employing two Tie2 HTRF assay as described in the following paragraphs.
A recombinant fusion protein of GST and the intracellular domains of Tie-2, expressed in insect cells (Hi-5) and purified by Glutathion-Sepharose affinity chromatography was used as kinase. Alternatively, commercially available GST-Tie2-fusion protein (Upstate Biotechnology, Dundee, Scotland) can be used As substrate for the kinase reaction the biotinylated peptide biotin-Ahx-EPKDDAYPLYSDFG (C-terminus in amid form) was used which can be purchased e.g. from the company Biosynthan GmbH (Berlin-Buch, Germany). Detection of phosphorylated product is achieved specifically by a trimeric detection complex consisting of the phosphorylated substrate, streptavidin-XLent (SA-XLent) which binds to biotin, and Europium Cryptate-labeled anti-phosphotyrosine antibody PT66 which binds to phosphorylated tyrosine.
Tie-2 (3.5 ng/measurement point) was incubated for 60 min at 22° C. in the presence of 10 μM adenosine-tri-phosphate (ATP) and 1 μM substrate peptide (biotin-Ahx-EPKDDAYPLYSDFG-NH2) with different concentrations of test compounds (0 μM and concentrations in the range 0.001-20 μM) in 5 μl assay buffer [50 mM Hepes/NaOH pH 7, 10 mM MgCl2, 0.5 mM MnCl2, 1.0 mM dithiothreitol, 0.01% NP40, protease inhibitor mixture (“Complete w/o EDTA” from Roche, 1 tablet per 2.5 ml), 1% (v/v) dimethylsulfoxide]. The reaction was stopped by the addition of 5 μl of an aqueous buffer (25 mM Hepes/NaOH pH 7.5, 0.28% (w/v) bovine serum albumin) containing EDTA (90 mM) and the HTRF (Homogeneous Time Resolved Fluorescence) detection reagents streptavidine-XLent (0.2 μM, from Cis Biointernational, Marcoule, France) and PT66-Eu-Chelate (0.3 ng/μl; a europium-chelate labelled anti-phospho-tyrosine antibody from Perkin Elmer).
as §1, with “substrate peptide” for “substrate”, “Viewlux” for “ViewLux”, “substrate peptide.” for “substrate.”

T1 sequence (P35968 834-1162 limits assumed): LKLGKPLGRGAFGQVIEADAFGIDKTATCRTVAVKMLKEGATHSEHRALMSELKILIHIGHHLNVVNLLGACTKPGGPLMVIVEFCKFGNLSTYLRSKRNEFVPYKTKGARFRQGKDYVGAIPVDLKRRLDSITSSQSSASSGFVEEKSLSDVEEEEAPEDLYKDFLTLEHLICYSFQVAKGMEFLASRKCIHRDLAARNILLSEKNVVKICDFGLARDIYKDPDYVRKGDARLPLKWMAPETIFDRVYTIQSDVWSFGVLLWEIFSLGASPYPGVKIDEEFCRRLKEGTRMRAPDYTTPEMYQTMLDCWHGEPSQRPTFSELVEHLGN

IC50 (human KDR)	IC50 (Tie2)	Structure (SMILES)
< 0.5 µM	< 0.5 µM	Cc1ccccc1C#Cc1cnc(Nc2cccc(S(C)(=N)=O)c2)nc1N[C@H](C)CO (mixture of isomers) [Example 1.19, (RS)-S-(3-[4-((R)-2-Hydroxy-1-methyl-ethylamino)-5-(2-methyl-phenylethynyl)-pyrimidin-2-ylamino]-phenyl)-S-methylsulfoximide]
< 0.5 µM	< 0.5 µM	Cc1cc(C#Cc2cnc(Nc3ccc(S(C)(=N)=O)cc3)nc2N[C@H](C)CO)ccc1F (mixture of isomers) [Example 1.13, (RS)-S-(4-[5-(4-Fluoro-3-methyl-phenyl-ethynyl)-4-((R)-2-hydroxy-1-methyl-ethylamino)-pyrimidin-2-ylamino]-phenyl)-S-methylsulfoximide]
< 0.5 µM	< 0.5 µM	C[C@H](CO)Nc1nc(Nc2ccc(S(C)(=N)=O)cc2)ncc1C#Cc1ccc(F)cc1 (mixture of isomers) [Example 1.9, (RS)-S-(4-[5-(4-Fluoro-phenyl-ethynyl)-4-((R)-2-hydroxy-1-methyl-ethylamino)-pyrimidin-2-ylamino]-phenyl)-S-methylsulfoximide]
< 0.5 µM	< 0.5 µM	Cc1cc(C#Cc2cnc(Nc3cccc(S(C)(=N)=O)c3)nc2N[C@H](C)CO)ccc1F (mixture of isomers) [Example 1.20, (RS)-S-(3-[5-(4-Fluoro-3-methyl-phenyl-ethynyl)-4-((R)-2-hydroxy-1-methyl-ethylamino)-pyrimidin-2-ylamino]-phenyl)-S-methylsulfoximide]
< 0.5 µM	< 0.5 µM	COc1ccc(C#Cc2cnc(Nc3cccc(S(C)(=N)=O)c3)nc2N[C@H](C)CO)cc1 (mixture of isomers) [Example 1.17, (RS)-S-(3-[4-((R)-2-Hydroxy-1-methyl-ethylamino)-5-(4-methoxy-phenylethynyl)-pyrimidin-2-ylamino]-phenyl)-S-methylsulfoximide]
< 0.5 µM	< 0.5 µM	CCNc1nc(Nc2ccc(S(C)(=N)=O)cc2)ncc1C#Cc1ccc(F)c(C)c1 (racemic) [Example 1.24, (RS)-S-(4-[4-ethylamino-5-(4-fluoro-3-methyl-phenyl-ethynyl)-pyrimidin-2-ylamino]-phenyl)-S-methylsulfoximide]
< 0.5 µM	< 0.5 µM	C[C@H](CO)Nc1nc(Nc2ccc(S(C)(=N)=O)cc2)ncc1C#Cc1ccccc1 (mixture of isomers) [Example 1.2, (RS)-S-(4-[4-((R)-2-Hydroxy-1-methyl-ethylamino)-5-(phenylethynyl)-pyrimidin-2-ylamino]-phenyl)-S-methylsulfoximide]
< 0.5 µM	< 0.5 µM	Cc1ccc(C#Cc2cnc(Nc3ccc(S(C)(=N)=O)cc3)nc2N[C@H](C)CO)cc1 (mixture of isomers) [Example 1.5]
< 0.5 µM	< 0.5 µM	CC(C)NC(=O)N=S(C)(=O)c1cccc(Nc2ncc(C#Cc3cccc(O)c3)c(N[C@H](C)CO)n2)c1 (mixture of isomers) [Example 1.15, (RS)-S-(3-[4-((R)-2-Hydroxy-1-methyl-ethylamino)-5-(3-hydroxy-phenylethynyl)-pyrimidin-2-ylamino]-phenyl)-N-(isopropylcarbamoyl)-S-methylsulfoximide]
< 0.5 µM	< 0.5 µM	CCNc1nc(Nc2ccc(S(C)(=N)=O)cc2)ncc1C#Cc1ccc(OC)cc1 (racemic) [Example 1.26, (RS)-S-(4-[4-ethylamino-5-(4-methoxy-phenyl-ethynyl)-pyrimidin-2-ylamino]-phenyl)-S-methylsulfoximide]
< 0.5 µM	< 0.5 µM	C[C@H](CO)Nc1nc(Nc2cccc(S(C)(=N)=O)c2)ncc1C#Cc1cccc(O)c1 (mixture of isomers) [Example 1.18, (RS)-S-(3-[4-((R)-2-Hydroxy-1-methyl-ethylamino)-5-(3-hydroxy-phenylethynyl)-pyrimidin-2-ylamino]-phenyl)-S-methylsulfoximide]
< 0.5 µM	< 0.5 µM	COc1ccc(C#Cc2cnc(Nc3ccc(S(C)(=N)=O)cc3)nc2N[C@H](C)CO)cc1 (mixture of isomers) [Example 1.1, (RS)—S-(4-[4-((R)-2-Hydroxy-1-methyl-ethylamino)-5-(4-methoxy-phenylethynyl)-pyrimidin-2-ylamino]-phenyl)-S-methylsulfoximide]
< 0.5 µM	< 0.5 µM	CCOC(=O)N=S(C)(=O)c1ccc(Nc2ncc(C#Cc3cccc(O)c3)c(N[C@H](C)CO)n2)cc1 (mixture of isomers) [Example 2.7]
< 0.5 µM	< 0.5 µM	Cc1ccccc1C#Cc1cnc(Nc2ccc(S(C)(=N)=O)cc2)nc1N[C@H](C)CO (mixture of isomers) [Example 1.3]
< 0.5 µM	< 0.5 µM	CCc1ccc(C#Cc2cnc(Nc3ccc(S(C)(=N)=O)cc3)nc2N[C@H](C)CO)cc1 (mixture of isomers) [Example 1.8, (RS)-S-(4-[5-(4-Ethyl-phenylethynyl)-4-((R)-2-hydroxy-1-methyl-ethylamino)-pyrimidin-2-ylamino]-phenyl)-S-methylsulfoximide]
< 0.5 µM	< 0.5 µM	CS(=N)(=O)c1cccc(Nc2ncc(C#Cc3cccc(O)c3)cn2)c1 (racemic) [Example 4.2, (RS)—S-(3-[5-(3-hydroxy-phenylethynyl)-pyrimidin-2-ylamino]-phenyl)-S-methylsulfoximide]
